Structures are written as SMILES.

Sequence of GTPase KRas [G12D] (P01116 whole entry G12D): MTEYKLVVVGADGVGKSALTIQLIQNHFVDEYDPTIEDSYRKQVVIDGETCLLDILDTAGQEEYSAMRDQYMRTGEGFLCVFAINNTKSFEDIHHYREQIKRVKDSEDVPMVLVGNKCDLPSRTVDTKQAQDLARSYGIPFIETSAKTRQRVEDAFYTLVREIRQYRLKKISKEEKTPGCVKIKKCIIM

The test deals with GTPase KRas [G12D] (Homo sapiens, UniProt P01116, G12D). Put plainly: Biochemical Assay. The method, then:
Compounds were tested for binding to GDP-loaded KRAS G12D in a 384-well assay format using a TR-FRET probe displacement assay in buffer consisting of 50 mM Hepes (pH 7.4), 150 mM NaCl, 5 mM MgCl2 and 0.005% Tween-20. […] Compounds were serially diluted (1:3) in DMSO. The LabCyte ECHO Acoustic dispenser system was used to pre-spot the assay plates (384-well Non-Binding Surface plates, Corning, Catalog #3824) with 50 nL of compound. The compounds were pre-incubated with 5 μL of 2× final enzyme concentration for 30 minutes before adding 5 μL of 2× final concentration of Eu-streptavidin and TR-FRET probe (10 μL final reaction volume). The plates were incubated at room temperature for 2 hours before measuring TR-FRET ratio on the Envision plate reader. IC50 values were defined as the compound concentration that causes a 50% decrease in TR-FRET ratio and were calculated using a sigmoidal dose-response model to generate curve fits.
What is called IC50 is the point on the concentration scale where inhibition reaches its midpoint. A high value points to weaker potency. For the compound `C#Cc1c(F)ccc2cccc(-c3nc4c5c(nc(OC[C@@]67CCCN6C[C@@H](OC(F)(F)F)C7)nc5c3F)N3C[C@H]5CC[C@H](N5)[C@H]3CC4)c12` [US20230339981, Example 140], the IC50 was 3.7 nM.
The same measure for `C#Cc1c(F)ccc2cc(O)cc(-c3nc4c5c(nc(OC[Si](C)(C)CN6CCOCC6)nc5c3F)N3C[C@H]5CC[C@H](N5)[C@H]3CO4)c12` [US20230339981, Example 29]: 560 nM; for `Fc1ccc2cccc(-c3nc4c5c(nc(OC[C@@]67CCCN6C[C@H](F)C7)nc5c3F)N3C[C@H]5CC[C@H](N5)[C@H]3CC4)c2c1OC(F)(F)F` [US20230339981, Example 65]: 89 nM.
Under `C#Cc1c(F)ccc2cc(O)cc(-c3nc4c5c(nc(OCC6(CN7CCC8(CC7)CC8)CC6)nc5c3F)N3C[C@H]5CC[C@H](N5)[C@H]3CC4)c12` [US20230339981, Example 177] stands 0.1 nM.
The same measure for `C#Cc1c(F)ccc2cc(O)cc(-c3nc4c5c(nc(OC[C@@]67CCCN6C[C@H](F)C7)nc5c3F)N3C[C@H]5CC[C@H](N5)[C@@H]3CC4)c12` [US20230339981, Example 133]: 0.1 nM.
